Test results taken from ChEMBL document CHEMBL4024730 (Bioorg Med Chem Lett, 2017).

Tested on: HeLa
Assay: Cytotoxicity against human HeLa cells assessed as cell death at 1 uM after 24 hrs MTT assay relative to control
Format: cell-based

O=C(/C=C/c1ccccc1)N[C@@H](c1ccccc1)[C@@H](OC(=O)c1ccccc1)C(=O)NC1CCCCC1
Activity: < 10%
